# Patent US9616245B2, “Method of treating cells with drug and radiation according to proton density” (priority 2009, dated 2017)
# Where two headings read alike, the source gives them in different places.
# Experiments:
# [1] = target: inducible nitric oxide synthase (iNOS) (Homo sapiens, UniProt P35228); conditions: cited from earlier work
# [2] = system: peripheral blood monocytes and alveolar macrophages; conditions: cited from earlier work
# cancer cells = conditions: cited from earlier work
# lipoxygenase = conditions: cited from earlier work
# protein kinase C (PKC) = conditions: cited from earlier work
# cycloxygenase = conditions: cited from earlier work
# [3] = system: head and neck tumor cell lines; conditions: Clin. Cancer Res. 2005; 11(19); cited from earlier work
# IkB kinase = conditions: cited from earlier work
# Protocol for recurrent Meduloblastoma: They also had high-grade fever. The chemotherapy was stopped for a week and given a blood transfusion and stabilized the patient. In the second leg the patient was then put on FORN mediated metronomic chemotherapy upon the request of their parent.
# During the FORN break period, as advised by the patient's treating oncologist, the patient continued the chemotherapy without FORN. Thus during the third leg the patient took chemotherapy without FORN. […] Another transfusion of blood was conducted.
# During the third leg of the trial, the cytotoxic drugs were continued to be administered, without the use of FORN.
# Sequence of inducible nitric oxide synthase (iNOS) (P35228 whole entry, species assumed): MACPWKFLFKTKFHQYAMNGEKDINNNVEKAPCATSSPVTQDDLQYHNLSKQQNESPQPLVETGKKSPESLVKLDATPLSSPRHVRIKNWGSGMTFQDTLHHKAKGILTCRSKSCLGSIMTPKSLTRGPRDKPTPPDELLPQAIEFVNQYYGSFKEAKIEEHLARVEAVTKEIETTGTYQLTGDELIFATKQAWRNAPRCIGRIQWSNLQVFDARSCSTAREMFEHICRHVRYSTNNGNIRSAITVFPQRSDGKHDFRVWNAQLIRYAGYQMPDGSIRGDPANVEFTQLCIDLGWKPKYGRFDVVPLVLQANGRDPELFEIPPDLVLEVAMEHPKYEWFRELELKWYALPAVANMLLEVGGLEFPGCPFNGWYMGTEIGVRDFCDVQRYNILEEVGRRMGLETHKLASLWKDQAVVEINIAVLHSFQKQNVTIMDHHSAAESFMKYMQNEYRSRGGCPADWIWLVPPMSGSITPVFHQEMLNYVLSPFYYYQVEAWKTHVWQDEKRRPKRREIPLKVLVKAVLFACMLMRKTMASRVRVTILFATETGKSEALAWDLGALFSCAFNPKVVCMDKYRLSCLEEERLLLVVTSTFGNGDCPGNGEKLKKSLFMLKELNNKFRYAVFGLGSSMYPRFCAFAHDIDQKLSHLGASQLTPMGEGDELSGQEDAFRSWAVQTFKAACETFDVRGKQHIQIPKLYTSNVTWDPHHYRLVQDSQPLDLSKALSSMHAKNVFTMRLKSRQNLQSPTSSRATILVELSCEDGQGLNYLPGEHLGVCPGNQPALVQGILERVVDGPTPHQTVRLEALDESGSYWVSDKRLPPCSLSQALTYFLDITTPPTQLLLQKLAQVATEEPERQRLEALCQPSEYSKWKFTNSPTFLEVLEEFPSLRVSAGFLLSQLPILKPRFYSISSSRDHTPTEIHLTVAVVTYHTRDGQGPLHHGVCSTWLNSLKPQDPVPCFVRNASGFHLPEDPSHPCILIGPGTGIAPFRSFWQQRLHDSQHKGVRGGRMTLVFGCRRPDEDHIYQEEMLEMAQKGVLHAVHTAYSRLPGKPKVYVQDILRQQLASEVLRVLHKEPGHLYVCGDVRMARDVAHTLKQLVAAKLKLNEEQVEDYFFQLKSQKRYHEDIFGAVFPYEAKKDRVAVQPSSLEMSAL
smiles,measurement,setting,value
"COc1cc([C@@H]2c3cc4c(cc3[C@@H](O[C@@H]3O[C@@H]5CO[C@@H](C)O[C@H]5[C@H](O)[C@H]3O)[C@H]3COC(=O)[C@H]23)OCO4)cc(OC)c1O [VP 16, Etoposide]",bone marrow / blood counts,"recurrent Meduloblastoma; human, in vivo",severe bone marrow depression
O=P1(N(CCCl)CCCl)NCCCO1 (stereo not shown) [Cyclophosphamide],bone marrow / blood counts,"recurrent Meduloblastoma; first leg, without FORN, metronomic mode with three anti angiogenic drugs, after 2 weeks",severe bone marrow depression
COc1cc(/C=C/C(=O)CC(=O)/C=C/c2ccc(O)c(OC)c2)ccc1O [Curcumin],inhibition of iNOS,[1],inhibits
same,production of inflammatory cytokines,[2],inhibit production
same,apoptosis (programmed cell death),cancer cells,induce apoptosis
same,inhibition of lipoxygenase,lipoxygenase,inhibits
same,inhibition of phorbol ester induced PKC activity,protein kinase C (PKC),inhibits
same,inhibition of cycloxygenase,cycloxygenase,inhibits
same,growth of tumor cell lines,[3],suppresses growth
same,inhibition of IkB kinase,IkB kinase,potent inhibitor
